Reference: ChEMBL document CHEMBL1156794, “Synthesis and antimicrobial evaluation of amphiphilic neamine derivatives” (J Med Chem, 2010)
≈ marks a conversion by molar mass, not a printed value.

How the values were obtained:
[1] = tested on: Staphylococcus aureus; test: Antibacterial activity against MsrA pump expressing Staphylococcus aureus after 24 hrs by geometric microdilution method; assay type: functional
[2] = tested on: Staphylococcus aureus; test: Antibacterial activity against aminoglycoside-6'-N-acetyltransferase/2''-O-phosphoryltransferase expressing Staphylococcus aureus after 24 hrs by geometric microdilution method; assay type: functional
[3] = tested on: Staphylococcus aureus; test: Antibacterial activity against aminoglycoside-3'-O-phosphoryltransferase expressing Staphylococcus aureus after 24 hrs by geometric microdilution method; assay type: functional
[4] = tested on: Staphylococcus aureus; test: Antibacterial activity against aminoglycoside-4'-O-phosphoryltransferase expressing Staphylococcus aureus after 24 hrs by geometric microdilution method; assay type: functional
[5] = tested on: Staphylococcus aureus; test: Antibacterial activity against methicillin-resistant Staphylococcus aureus ATCC 33592 clinical isolate after 24 hrs by geometric microdilution method; assay type: functional; details: ATCC 33592, 24 h
[6] = tested on: Staphylococcus aureus; test: Antibacterial activity against vancomycin-resistant Staphylococcus aureus VRS-2 after 24 hrs by geometric microdilution method; assay type: functional; details: VRS-2, 24 h
[7] = tested on: Acinetobacter lwoffii; test: Antibacterial activity against […] expressing Acinetobacter lwoffii AI.88-483 after 24 hrs by geometric microdilution method; assay type: functional; details: AI.88-483, 24 h
[8] = tested on: Pseudomonas aeruginosa; test: Antibacterial activity against Pseudomonas aeruginosa ATCC 27853 after 24 hrs by geometric microdilution method; assay type: functional; details: ATCC 27853, 24 h
[9] = tested on: Pseudomonas aeruginosa; test: Antibacterial activity against AAC6'-2a expressing Pseudomonas aeruginosa F03 after 24 hrs by geometric microdilution method; assay type: functional; details: F03, 24 h
[10] = tested on: Pseudomonas aeruginosa; test: Antibacterial activity against MexXY expressing Pseudomonas aeruginosa PT629 after 24 hrs by geometric microdilution method; assay type: functional; details: PT629, 24 h
[11] = tested on: Klebsiella pneumoniae; test: Antibacterial activity against Klebsiella pneumoniae ATCC 700603 after 24 hrs by geometric microdilution method; assay type: functional; details: ATCC 700603, 24 h
[12] = tested on: Escherichia coli; test: Antibacterial activity against AAC6'-2b expressing Escherichia coli PAZ505H8101 after 24 hrs by geometric microdilution method; assay type: functional; details: PAZ505H8101, 24 h
[13] = tested on: Escherichia coli; test: Antibacterial activity against ANT2'-2a expressing Escherichia coli L58058.1 after 24 hrs by geometric microdilution method; assay type: functional; details: L58058.1, 24 h
[14] = tested on: Pseudomonas aeruginosa; test: Antibacterial activity against Pseudomonas aeruginosa PAO1 after 24 hrs by geometric microdilution method; assay type: functional; details: PAO1, 24 h
[15] = tested on: Pseudomonas aeruginosa; test: Antibacterial activity against MexCD expressing Pseudomonas aeruginosa PA01 after 24 hrs by geometric microdilution method; assay type: functional; details: PA01, 24 h
[16] = tested on: Pseudomonas aeruginosa; test: Antibacterial activity against MexEF expressing Pseudomonas aeruginosa PA03 after 24 hrs by geometric microdilution method; assay type: functional; details: PA03, 24 h
[17] = tested on: Pseudomonas aeruginosa; test: Antibacterial activity against MexAB expressing Pseudomonas aeruginosa PA21 after 24 hrs by geometric microdilution method; assay type: functional; details: PA21, 24 h
[18] = tested on: Pseudomonas aeruginosa; test: Antibacterial activity against MexXY expressing Pseudomonas aeruginosa PA22 after 24 hrs by geometric microdilution method; assay type: functional; details: PA22, 24 h
[19] = tested on: Pseudomonas aeruginosa; test: Antibacterial activity against TriABC expressing MexAB, MexCD, MexEF, MexXY deleted Pseudomonas aeruginosa PA405 after 24 hrs by geometric microdilution method; assay type: functional; details: PA405, 24 h
[20] = tested on: Pseudomonas aeruginosa; test: Antibacterial activity against MexAB, MexCD, MexEF, MexXY, TriABC deleted Pseudomonas aeruginosa PA406 after 24 hrs by geometric microdilution method; assay type: functional; details: PA406, 24 h
[21] = tested on: Pseudomonas aeruginosa; test: Inhibition of protein synthesis in Pseudomonas aeruginosa ATCC 27853 assessed as decrease in incorporation of L-[4,5-3H]leucine at MIC by liquid scintillation counter relative to control; assay type: functional
[22] = tested on: Pseudomonas aeruginosa; test: Inhibition of protein synthesis in Pseudomonas aeruginosa ATCC 27853 assessed as decrease in incorporation of L-[4,5-3H]leucine at 10 times MIC by liquid scintillation counter relative to control; assay type: functional
[23] = molecular target: Nucleic Acid; test: Binding affinity to bacterial rRNA A site at 200 uM by isothermal titration calorimetry; assay type: nucleic-acid assay
[24] = tested on: Staphylococcus aureus; test: Antibacterial activity against Staphylococcus aureus ATCC 25923 after 24 hrs by geometric microdilution method; assay type: functional; details: ATCC 25923, 24 h
[25] = tested on: Staphylococcus aureus; test: Antibacterial activity against NorA pump expressing Staphylococcus aureus after 24 hrs by geometric microdilution method; assay type: functional
[26] = tested on: Acinetobacter lwoffii; test: microbe, parasite or virus in culture; details: ATCC 17925, 24 h
Description: Antibacterial activity against Acinetobacter lwoffii ATCC 17925 after 24 hrs by geometric microdilution method

[27] = tested on: Escherichia coli; test: microbe, parasite or virus in culture; details: ATCC 25922, 24 h
Description: Antibacterial activity against Escherichia coli ATCC 25922 after 24 hrs by geometric microdilution method

[28] = tested on: Citrobacter amalonaticus; test: Antibacterial activity against R-methylase expressing Citrobacter amalonaticus 06AB0010 after 24 hrs by geometric microdilution method; assay type: functional; details: 06AB0010, 24 h
[29] = tested on: Escherichia coli; test: Antibacterial activity against R-methylase expressing Escherichia coli 06AB003 after 24 hrs by geometric microdilution method; assay type: functional; details: 06AB003, 24 h
[30] = tested on: Klebsiella aerogenes; test: Antibacterial activity against R-methylase expressing Enterobacter aerogenes 06AB008 after 24 hrs by geometric microdilution method; assay type: functional; details: 06AB008, 24 h
[31] = tested on: Pseudomonas aeruginosa; test: Inhibition of protein synthesis in Pseudomonas aeruginosa ATCC 27853 assessed as decrease in incorporation of L-[4,5-3H]leucine at 5 times MIC by liquid scintillation counter relative to control; assay type: functional

SMILES | MIC [7] | MIC [8] | MIC [9] | MIC [10] | MIC [11] | MIC [12] | MIC [13] | MIC [14] | MIC [15] | MIC [16] | MIC [17] | MIC [18] | MIC [19] | MIC [20] | inhibition (INH) [22] | MIC [26] | MIC [27] | MIC [28] | MIC [29] | MIC [30] | also measured
NC[C@@H]1O[C@H](O[C@H]2[C@@H](O)[C@H](O[C@@H]3[C@@H](O)[C@H](N)C[C@H](N)[C@H]3O[C@H]3O[C@H](CN)[C@@H](O)[C@H](O)[C@H]3N)O[C@@H]2CO)[C@H](N)[C@@H](O)[C@@H]1O [FRAMYCETIN] | > 128 µg/mL | 64 µg/mL (≈ 104 µM) | 128 µg/mL (≈ 208 µM) | 32 µg/mL (≈ 52.1 µM) | 16 µg/mL (≈ 26 µM) | 4 µg/mL (≈ 6.51 µM) | 32 µg/mL (≈ 52.1 µM) | 4 µg/mL (≈ 6.51 µM) | 8 µg/mL (≈ 13 µM) | 4 µg/mL (≈ 6.51 µM) | 4 µg/mL (≈ 6.51 µM) | 32 µg/mL (≈ 52.1 µM) | 2 µg/mL (≈ 3.25 µM) | 4 µg/mL (≈ 6.51 µM) | 40% | 0.5 µg/mL (≈ 0.813 µM) | 2 µg/mL (≈ 3.25 µM) | – | – | – | MIC [1]: 2 µg/mL (≈ 3.25 µM); MIC [2]: 1 µg/mL (≈ 1.63 µM); MIC [3]: > 128 µg/mL; MIC [4]: 32 µg/mL (≈ 52.1 µM); MIC [5]: > 128 µg/mL; MIC [6]: 128 µg/mL (≈ 208 µM); inhibition (INH) [21]: 40%; Kd [23]: 1.55 µM; MIC [24]: 2 µg/mL (≈ 3.25 µM); MIC [25]: 1 µg/mL (≈ 1.63 µM)
NCC[C@H](O)C(=O)N[C@@H]1C[C@H](N)[C@@H](O[C@H]2O[C@H](CN)[C@@H](O)[C@H](O)[C@H]2O)[C@H](O)[C@H]1O[C@H]1O[C@H](CO)[C@@H](O)[C@H](N)[C@H]1O [AMIKACIN] | > 128 µg/mL | 2 µg/mL (≈ 3.42 µM) | 4 µg/mL (≈ 6.83 µM) | 8 µg/mL (≈ 13.7 µM) | 0.5 µg/mL (≈ 0.854 µM) | 32 µg/mL (≈ 54.6 µM) | 2 µg/mL (≈ 3.42 µM) | 2 µg/mL (≈ 3.42 µM) | 2 µg/mL (≈ 3.42 µM) | 2 µg/mL (≈ 3.42 µM) | 2 µg/mL (≈ 3.42 µM) | 8 µg/mL (≈ 13.7 µM) | 0.5 µg/mL (≈ 0.854 µM) | 1 µg/mL (≈ 1.71 µM) | – | 0.5 µg/mL (≈ 0.854 µM) | 4 µg/mL (≈ 6.83 µM) | > 128 µg/mL | > 128 µg/mL | > 128 µg/mL | –
C[C@H]1[C@H](NC(=O)/C(=N\OC(C)(C)C(=O)O)c2csc(N)n2)C(=O)N1S(=O)(=O)O [AZTREONAM] | – | – | – | – | – | – | – | – | – | – | – | – | – | – | 95% | – | – | – | – | – | inhibition (INH) [31]: 30%
NC[C@H]1O[C@H](O[C@H]2[C@H](O)[C@@H](O[C@H]3O[C@H](CO)[C@@H](O)[C@H](N)[C@H]3O)[C@H](N)C[C@@H]2N)[C@H](N)C[C@@H]1O [TOBRAMYCIN] | 1 µg/mL (≈ 2.14 µM) | 0.5 µg/mL (≈ 1.07 µM) | 128 µg/mL (≈ 274 µM) | 1 µg/mL (≈ 2.14 µM) | 4 µg/mL (≈ 8.56 µM) | 32 µg/mL (≈ 68.4 µM) | 64 µg/mL (≈ 137 µM) | 0.5 µg/mL (≈ 1.07 µM) | 0.5 µg/mL (≈ 1.07 µM) | < 0.25 µg/mL | 0.5 µg/mL (≈ 1.07 µM) | 1 µg/mL (≈ 2.14 µM) | < 0.25 µg/mL | < 0.25 µg/mL | – | 0.5 µg/mL (≈ 1.07 µM) | 0.5 µg/mL (≈ 1.07 µM) | > 128 µg/mL | > 128 µg/mL | > 128 µg/mL | –
NC[C@H]1O[C@H](O[C@H]2[C@H](O)[C@@H](OCc3ccc4ccccc4c3)[C@H](N)C[C@@H]2N)[C@H](N)[C@@H](OCc2ccc3ccccc3c2)[C@@H]1OCc1ccc2ccccc2c1 | 32 µg/mL (≈ 43.1 µM) | 8 µg/mL (≈ 10.8 µM) | 8 µg/mL (≈ 10.8 µM) | 4 µg/mL (≈ 5.38 µM) | 16 µg/mL (≈ 21.5 µM) | 4 µg/mL (≈ 5.38 µM) | 4 µg/mL (≈ 5.38 µM) | 8 µg/mL (≈ 10.8 µM) | 4 µg/mL (≈ 5.38 µM) | 4 µg/mL (≈ 5.38 µM) | 4 µg/mL (≈ 5.38 µM) | 4 µg/mL (≈ 5.38 µM) | 4 µg/mL (≈ 5.38 µM) | 4 µg/mL (≈ 5.38 µM) | 60% | – | – | 4 µg/mL (≈ 5.38 µM) | 4 µg/mL (≈ 5.38 µM) | 4 µg/mL (≈ 5.38 µM) | Kd [23]: 10 µM
